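A five-concentration, 48-hour dose response in 96-well plates underlies each endpoint, interpolated linearly between surrounding concentrations. Here, GI50 denotes the concentration required for 50% inhibition of growth. TGI: total growth inhibition.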
Tests used:
Assay in all cases: DTP human tumour cell line panel, 48 h
SK-MEL-28 melanoma = system: SK-MEL-28 melanoma
ACHN renal = system: ACHN renal
DU-145 prostate = system: DU-145 prostate
SF-268 CNS = system: SF-268 CNS
T-47D breast = system: T-47D breast
A498 renal = system: A498 renal
SK-MEL-5 melanoma = system: SK-MEL-5 melanoma
UACC-62 melanoma = system: UACC-62 melanoma
BT-549 breast = system: BT-549 breast
HS 578T breast = system: HS 578T breast
CCRF-CEM leukemia = system: CCRF-CEM leukemia
NCI/ADR-RES ovarian = system: NCI/ADR-RES ovarian
OVCAR-8 ovarian = system: OVCAR-8 ovarian
SF-295 CNS = system: SF-295 CNS
SF-539 CNS = system: SF-539 CNS
PC-3 prostate = system: PC-3 prostate
HT29 colon = system: HT29 colon
SW-620 colon = system: SW-620 colon
K-562 leukemia = system: K-562 leukemia
MCF7 breast = system: MCF7 breast
KM12 colon = system: KM12 colon
M14 melanoma = system: M14 melanoma
RPMI-8226 leukemia = system: RPMI-8226 leukemia
NCI-H23 lung = system: NCI-H23 lung
UO-31 renal = system: UO-31 renal
SK-MEL-2 melanoma = system: SK-MEL-2 melanoma
SK-OV-3 ovarian = system: SK-OV-3 ovarian
RXF 393 renal = system: RXF 393 renal
A549 NSCLC = system: A549 NSCLC
IGROV1 ovarian = system: IGROV1 ovarian
OVCAR-5 ovarian = system: OVCAR-5 ovarian
U251 CNS = system: U251 CNS
OVCAR-3 ovarian = system: OVCAR-3 ovarian
MDA-MB-435 = system: MDA-MB-435
786-0 renal = system: 786-0 renal
TK-10 renal = system: TK-10 renal
COLO 205 colon = system: COLO 205 colon
HCT-15 colon = system: HCT-15 colon
MDA-MB-231 breast = system: MDA-MB-231 breast
HCT-116 colon = system: HCT-116 colon
HOP-62 NSCLC = system: HOP-62 NSCLC
SNB-19 CNS = system: SNB-19 CNS
EKVX NSCLC = system: EKVX NSCLC
UACC-257 melanoma = system: UACC-257 melanoma
HCC-2998 colon = system: HCC-2998 colon
MALME-3M melanoma = system: MALME-3M melanoma
SNB-75 CNS = system: SNB-75 CNS
MOLT-4 leukemia = system: MOLT-4 leukemia
CAKI-1 renal = system: CAKI-1 renal
NCI-H226 lung = system: NCI-H226 lung
NCI-H460 lung = system: NCI-H460 lung
SN12C renal = system: SN12C renal
NCI-H522 lung = system: NCI-H522 lung
HOP-92 NSCLC = system: HOP-92 NSCLC

CNC(C)C(=O)N[C@H](C(=O)N1CCC[C@@H]1CN(CCc1ccccc1)C(=O)C(F)(F)F)[C@H](C)OCC#CC#CCO[C@H](C)[C@H](NC(=O)[C@H](C)NC)C(=O)N1CCC[C@H]1CN(CCc1ccccc1)C(=O)C(F)(F)F (stereo partly drawn)
GI50 (SK-MEL-28 melanoma): 1.54 µM
TGI (SK-MEL-28 melanoma): 2.96 µM
GI50 (ACHN renal): 1.85 µM
TGI (ACHN renal): 3.44 µM
GI50 (DU-145 prostate): 1.56 µM
TGI (DU-145 prostate): 3.05 µM
GI50 (SF-268 CNS): 1.94 µM
TGI (SF-268 CNS): 3.57 µM
GI50 (T-47D breast): 1.64 µM
TGI (T-47D breast): 3.3 µM
GI50 (A498 renal): 1.03 µM
TGI (A498 renal): 2.61 µM
GI50 (SK-MEL-5 melanoma): 1.31 µM
TGI (SK-MEL-5 melanoma): 2.62 µM
GI50 (UACC-62 melanoma): 1.77 µM
TGI (UACC-62 melanoma): 3.24 µM
GI50 (BT-549 breast): < 0.01 µM
TGI (BT-549 breast): 1.69 µM
GI50 (HS 578T breast): 1.55 µM
TGI (HS 578T breast): 3.65 µM
GI50 (CCRF-CEM leukemia): 0.602 µM
TGI (CCRF-CEM leukemia): 2.54 µM
GI50 (NCI/ADR-RES ovarian): 8.19 µM
TGI (NCI/ADR-RES ovarian): 27.3 µM
GI50 (OVCAR-8 ovarian): 0.67 µM
TGI (OVCAR-8 ovarian): 2.19 µM
GI50 (SF-295 CNS): 1.31 µM
TGI (SF-295 CNS): 2.84 µM
GI50 (SF-539 CNS): < 0.01 µM
TGI (SF-539 CNS): 0.199 µM
GI50 (PC-3 prostate): 1.72 µM
TGI (PC-3 prostate): 3.23 µM
GI50 (HT29 colon): 0.465 µM
TGI (HT29 colon): 1.53 µM
GI50 (SW-620 colon): 1.63 µM
TGI (SW-620 colon): 3.16 µM
GI50 (K-562 leukemia): 0.366 µM
TGI (K-562 leukemia): 1.49 µM
GI50 (MCF7 breast): 0.239 µM
TGI (MCF7 breast): 1.76 µM
GI50 (KM12 colon): 1.71 µM
TGI (KM12 colon): 3.25 µM
GI50 (M14 melanoma): 1.79 µM
TGI (M14 melanoma): 3.41 µM
GI50 (RPMI-8226 leukemia): 1.53 µM
TGI (RPMI-8226 leukemia): 3.52 µM
GI50 (NCI-H23 lung): 1.16 µM
TGI (NCI-H23 lung): 2.68 µM
GI50 (UO-31 renal): 2.14 µM
TGI (UO-31 renal): 3.98 µM
GI50 (SK-MEL-2 melanoma): < 0.01 µM
TGI (SK-MEL-2 melanoma): 1.41 µM
GI50 (SK-OV-3 ovarian): < 0.01 µM
TGI (SK-OV-3 ovarian): < 0.01 µM
GI50 (RXF 393 renal): 0.0771 µM
TGI (RXF 393 renal): 0.486 µM
GI50 (A549 NSCLC): 1.72 µM
TGI (A549 NSCLC): 3.27 µM
GI50 (IGROV1 ovarian): 2.13 µM
TGI (IGROV1 ovarian): 4.38 µM
GI50 (OVCAR-5 ovarian): 1.88 µM
TGI (OVCAR-5 ovarian): 3.68 µM
GI50 (U251 CNS): 1.1 µM
TGI (U251 CNS): 2.48 µM
GI50 (OVCAR-3 ovarian): 1.42 µM
TGI (OVCAR-3 ovarian): 2.86 µM
GI50 (MDA-MB-435): 1.63 µM
TGI (MDA-MB-435): 3.46 µM
GI50 (786-0 renal): 1.65 µM
TGI (786-0 renal): 3.25 µM
GI50 (TK-10 renal): 2.22 µM
TGI (TK-10 renal): 3.8 µM
GI50 (COLO 205 colon): 1.42 µM
TGI (COLO 205 colon): 2.99 µM
GI50 (HCT-15 colon): 1.76 µM
TGI (HCT-15 colon): 3.75 µM
GI50 (MDA-MB-231 breast): < 0.01 µM
TGI (MDA-MB-231 breast): < 0.01 µM
GI50 (HCT-116 colon): 1.43 µM
TGI (HCT-116 colon): 2.78 µM
GI50 (HOP-62 NSCLC): 0.729 µM
TGI (HOP-62 NSCLC): 2.46 µM
GI50 (SNB-19 CNS): 1.81 µM
TGI (SNB-19 CNS): 3.43 µM
GI50 (EKVX NSCLC): 1.63 µM
TGI (EKVX NSCLC): 3.34 µM
GI50 (UACC-257 melanoma): 1.28 µM
TGI (UACC-257 melanoma): 2.72 µM
GI50 (HCC-2998 colon): 1.45 µM
TGI (HCC-2998 colon): 3.04 µM
GI50 (MALME-3M melanoma): 0.0115 µM
TGI (MALME-3M melanoma): 0.716 µM
GI50 (SNB-75 CNS): < 0.037 µM
TGI (SNB-75 CNS): 0.764 µM
GI50 (MOLT-4 leukemia): 1.75 µM
TGI (MOLT-4 leukemia): 4.1 µM
GI50 (CAKI-1 renal): 2.39 µM
TGI (CAKI-1 renal): 5.51 µM
GI50 (NCI-H226 lung): 1.54 µM
TGI (NCI-H226 lung): 3.06 µM
GI50 (NCI-H460 lung): 1.83 µM
TGI (NCI-H460 lung): 3.59 µM
GI50 (SN12C renal): 1.78 µM
TGI (SN12C renal): 3.32 µM
GI50 (NCI-H522 lung): 0.724 µM
TGI (NCI-H522 lung): 2.18 µM
GI50 (HOP-92 NSCLC): 0.373 µM
TGI (HOP-92 NSCLC): 1.61 µM

Reference: PubChem BioAssay (NCI)
